For data set [1], the system named is micronucleated cells in blood. The experiment in a line: Effects of bleeding on the sensitivity of the micronucleus assay, MMS. Type of data set: in vivo, mouse. The settings on record: for MNs in 96 hr blood, MMS(D): MMS 100 μg/g body wt at 0 and 48 hrs; for Increase in MNs (D - C): MMS minus saline means. An excerpt:
Earlier, it was pointed out that obtaining an initial blood sample (t=0) provides an important background measurement of the number of micronucleii in each mouse. Obtaining an initial blood sample also increases the sensitivity of the assay, due to the stimulation of the stem cells to replenish the lost blood. Clastogen action should be increased if cells are actively turning over, rather than subsisting in a quiscent state. In the absence of bleeding, new PCEs are introduced into the blood cells at a low steady state level and MNs are introduced at a spontaneous background level. […] Practioners in the art are unaware of this increase in sensitivity due to initial bleeding. […] In this experiment, control mice were dosed with 0.9% saline, whereas treated mice received MMS (100 μg/g body wt.) at 0 hr and at 48 hrs. The first set of mice (the L series) were not bleed prior to obtaining a 96 hour blood sample. The MN-cell level resulting from MMS treatment would reflect the probability of clastogen action in the steady state stem cell turnover rate. The second set of mice (the M series) were bleed 166 hrs prior to the initial clastogen dose. In this set, the minus 166 hr bleeding will cause stem cell proliferation and differentiation, but the system should begin to return to steady state once the blood is replenished. The third set (the K series) was bleed at t=0hr where upon dosing was initiated, and a final blood sample was obtained at t=96 hrs.
Since the L series was not initially bleed, the initial blood samples were not used in the analysis of the M or K series for equal comparison with L. Rather, only the 96 hour blood samples were analyzed in each set. The difference, D, between the saline controls and the dosed mice should reflect the level of turnover of the stem cells and the suseptibility of said cells to clastogen action in each case. […] Although the M series had 166 hrs to recover from the initial bleeding before being dosed with MMS, the stem cells still appear to be fairly active, and an intermediate level of micronucleated cells was obtained (i.e. 513 events above background). Finally, the highest activity was obtained with the K-series wherein the mice were bleed and immediately dosed. In this case, the stem cells are turning over at a high rate to replenish the blood at a time when the concentration of MMS is also high. […] The results in Tables 2 and 4 provide additional experimental evidence that bleeding stimulates stem cell proliferation and differentiation. […] This increase in sensitivity could be particularly important in cases where a week clastogen is being investigated.

Data set [2] relates to micronucleated cells in blood. The experiment in a line: Cyclophosphamide dose response, flow cytometric micronucleus assay. It counts as in vivo, mouse. The method, then: However, an effective flow cytometry based micronulceus assay should also be able to reflect changes in the number of MN-cells at different doses of a clastogen. Accordingly, another example of this embodiment involves a cyclophosphamide dose response analysis. Ten mice were divided into sets of two for this experiment. An initial blood sample was taken (t=0hr) for each mouse. The two control mice were dosed with saline while the other sets received different doses of cyclophosphamide (50,100,150 or 200 μg/g body weight). Each set was treated twice, at t=0 and t=48 hrs. Final blood samples were obtained at t=96hrs, and were fixed and stained with Hoechst 33258 to which PC microspheres had been added. The position of the microsphere peak was initially calibrated using the malaria infected RBCs as the primary standard. Each sample was then checked to insure that the microsphere peak was still at the calibrated position before acquisition. Some slight adjustments were necessary in the gains during the course of the analysis, during which ten t=0 samples and ten t=96 samples were run. One million total cells were counted for each sample. Gates were set on forward scatter (e.g. FIG. 3), side scatter (before the major cell peak), and a red gate (e.g. as shown in FIG. 13). These gates insured that only red blood cells and their associated micronuclei would be acquired. Following acquisition, the number of micronucleated cells at t=0 were subtracted from the number at t=96hr for each mouse. The average for the saline controls were slightly negative, and were recorded as zero in this graph. […] In addition, the high doses were approaching 1500 events more than the zero (control) values. […] For comparison, the 96hr samples were also hand counted and the number of MNs/1000 PCEs were determined.
In general terms: In flow cytometry, cells or beads pass a laser one at a time.

Data set [3] concerns micronucleated cells in blood. The settings on record: literature statement; cited from earlier work.
The mark [4] stands for this setting: K Series: initial bleeding at t = 0.
The mark [5] stands for this setting: M Series: initial bleeding at -166 hr.

Values joined by “and” are separate entries in the source; they are usually repeats but may differ in a detail not shown here. Equal values may be shown once. “Also recorded” adds a separate entry of the source.

For `COS(C)(=O)=O` [MMS, methyl methanesulfonate], the “MNs in 96 hr blood, MMS(D)” value in data set [1] (setting [4]) was 1829 and 1794 and 1812; in data set [1] (L Series: no initial bleeding) it was 1352 and 1390 and 1331 and 1357 ± 30; in data set [1] (setting [5]) it was 1776 and 1541 and 1673 and 1663 ± 118. The “Increase in MNs (D - C)” value in data set [1] (setting [4]) came out at 777; in data set [1] (L Series: no initial bleeding), 314; in data set [1] (setting [5]), 513.
For the compound `O=P1(N(CCCl)CCCl)NCCCO1` (stereo not shown) [cyclophosphamide], the “dose response” value in data set [2] (cyclophosphamide 50, 100, 150 or 200 μg/g body weight at t=0 and t=48 hrs) was “dose response relationship is evident; also recorded: good dose response relationship is obtained”. Also, the “clastogenic action at the lower doses” value in data set [2] (cyclophosphamide, lower doses, FIG. 14) is “data at the lower doses clearly supports the conclusion that clastogenic action was present”. Further, the “increase in MN events over zero (control) values” in data set [2] (high doses of cyclophosphamide (50-200 μg/g body weight tested) at t=0 and t=48 hrs, one million total cells) is given as around 1500 events. In addition, in data set [3], the “clastogenic activity (documented)” value is “clastogenic activity of cyclophosphamide has been documented”.

These data come from US5229265A, “Process for analyzing clastogenic agents” (Litron Laboratories, priority 1990, dated 1993).
